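Each compound was tested at five concentrations against cells in 96-well plates for 48 hours. GI50 marks 50% less growth. At the TGI there is no net growth.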
What was measured:
Assay in all cases: DTP human tumour cell line panel, 48 h
[1] = tested on: 786-0 renal
[2] = tested on: A549 NSCLC
[3] = tested on: CAKI-1 renal
[4] = tested on: CCRF-CEM leukemia
[5] = tested on: HCT-15 colon
[6] = tested on: NCI-H460 lung
[7] = tested on: SF-295 CNS
[8] = tested on: SF-539 CNS
[9] = tested on: UO-31 renal
[10] = tested on: MDA-MB-435

| Compound | TGI [1] | TGI [2] | TGI [3] | TGI [4] | TGI [5] | TGI [6] | TGI [7] | TGI [8] | TGI [9] | GI50 [1] | GI50 [2] | GI50 [3] | GI50 [4] | GI50 [5] | GI50 [6] | GI50 [7] | GI50 [8] | GI50 [9] | GI50 [10] | TGI [10] |
| --- | --- | --- | --- | --- | --- | --- | --- | --- | --- | --- | --- | --- | --- | --- | --- | --- | --- | --- | --- | --- |
| CC(C(=O)c1ccc(O)cc1)C1(O)C(=O)Nc2c(Cl)cc(Cl)cc21 (stereo unspecified) | > 100 µM | > 100 µM | > 100 µM | 74.7 µM | > 100 µM | > 100 µM | > 100 µM | > 100 µM | > 100 µM |  |  |  |  |  |  |  |  |  |  |  |
| COC(=O)c1ccc(N/C=C(/C#N)c2ccsc2)cc1 | 23.3 µM | 40.3 µM | 30.5 µM | > 100 µM | > 100 µM | > 100 µM | 19.9 µM | 32.3 µM | 32.5 µM |  |  |  |  |  |  |  |  |  |  |  |
| Cc1cc(O)cc(-c2nn(C)cc2-c2cc(N3CCOCC3)nc(-c3cccnc3)n2)c1 | 11.6 µM | > 100 µM | > 100 µM | 33.9 µM | 23.4 µM | > 100 µM | 14.6 µM | 4.8 µM | 43.3 µM | 2.52 µM | 6.54 µM | 3.32 µM | 2.72 µM | 2.63 µM | 3.28 µM | 3.28 µM | 1.88 µM | 3.44 µM |  |  |
| COc1ccc(C2C(C(=O)O)=C(CO)Oc3cc4c(cc32)OCO4)c(OC)c1 (stereo unspecified) | > 100 µM | > 100 µM | > 100 µM | > 100 µM | > 100 µM | > 100 µM | > 100 µM | > 100 µM | > 100 µM |  |  |  |  |  |  |  |  |  |  |  |
| Nc1ncc(-c2ccc3ncnc(N4CCc5cc(F)c(Cl)cc54)c3c2)cc1C(F)(F)F | 4.79 µM | > 100 µM |  | > 100 µM | > 100 µM | > 100 µM | > 100 µM |  | > 100 µM | 1.04 µM | 1.56 µM |  | 2.68 µM | 1.57 µM | 1.39 µM | 2.03 µM |  | 0.33 µM |  |  |
| O=CCC(O)C(O)C(O)CO (stereo unspecified) | > 100 µM | > 100 µM | > 100 µM | > 100 µM | > 100 µM | > 100 µM | > 100 µM |  | > 100 µM | > 100 µM | > 100 µM | > 100 µM | > 100 µM | > 100 µM | > 100 µM | > 100 µM |  | > 100 µM | > 100 µM | > 100 µM |
| CN(C)C(=S)/N=C(\N)N(C)C | > 100 µM | > 100 µM | > 100 µM | > 100 µM | > 100 µM | > 100 µM | > 100 µM | > 100 µM | > 100 µM |  |  |  |  |  |  |  |  |  |  |  |
| CNC(=O)NCCCCC(NC(=O)OCc1ccccc1)C(=O)OCc1ccccc1 (stereo unspecified) | 32.2 µM | > 100 µM | 48.6 µM | 38.5 µM | > 100 µM | > 100 µM | 50.3 µM | 38.5 µM | 32.7 µM |  |  |  |  |  |  |  |  |  |  |  |
| CCSc1nnc(-c2ccc3ccccc3c2O)n1-c1ccccc1 | > 100 µM |  |  |  | > 100 µM | > 100 µM |  | > 100 µM |  | > 100 µM |  |  |  | 2.72 µM | 3.25 µM |  | > 100 µM |  |  |  |
| CC(C)(C)CC(C)(C)c1cc2c(O)c(c1)Cc1cc(C(C)(C)CC(C)(C)C)cc(c1O)Cc1cc(C(C)(C)CC(C)(C)C)cc(c1O)Cc1cc(C(C)(C)CC(C)(C)C)cc(c1O)Cc1cc(C(C)(C)CC(C)(C)C)cc(c1O)Cc1cc(C(C)(C)CC(C)(C)C)cc(c1O)Cc1cc(C(C)(C)CC(C)(C)C)cc(c1O)Cc1cc(C(C)(C)CC(C)(C)C)cc(c1O)C2 | > 100 µM | > 100 µM |  | > 100 µM | > 100 µM | > 100 µM | > 100 µM | > 100 µM | > 100 µM |  |  |  |  |  |  |  |  |  |  |  |
| C=CC(=O)OCCCS(=O)(=O)[O-].C=CC(=O)OCCCS(=O)(=O)[O-].NC1CCCCC1N.[Pt+4] | > 25 µM | > 25 µM | > 25 µM | > 25 µM | > 25 µM | > 25 µM | > 25 µM | > 25 µM | > 25 µM | > 25 µM | > 25 µM | > 25 µM | > 25 µM | > 25 µM | > 25 µM | > 25 µM | > 25 µM | > 25 µM |  |  |
| CC1=C(C(=O)NCc2ccccc2)C(c2ccc(N(C)C)cc2)C(C(=O)NCc2ccccc2)=C(C)N1 | > 100 µM | > 100 µM | > 100 µM | > 100 µM |  | > 100 µM | > 100 µM | > 100 µM | > 100 µM |  |  |  |  |  |  |  |  |  |  |  |
| O=C(/C=C/c1ccco1)N1CCN(Cc2ccccc2)CC1 | > 100 µM | > 100 µM | > 100 µM | > 100 µM | > 100 µM | > 100 µM | > 100 µM | > 100 µM | > 100 µM |  |  |  |  |  |  |  |  |  |  |  |
| COc1cc2ccnc(-c3n[nH]c4cc(OC)c(OC)cc34)c2cc1OC | > 100 µM | > 100 µM | > 100 µM | > 100 µM | > 100 µM | > 100 µM | > 100 µM | > 100 µM | > 100 µM |  |  |  |  |  |  |  |  |  |  |  |
| CC(C)=CC1(C)/C(=N\O)C(C)(CC(C)C)C(=O)N1O (stereo unspecified) | > 100 µM | > 100 µM | > 100 µM | > 100 µM | > 100 µM | > 100 µM | > 100 µM | > 100 µM | > 100 µM |  |  |  |  |  |  |  |  |  |  |  |
| Cc1nc2sc(C(=O)Nc3cccc(Cl)c3C)c(N)c2cc1C(O)c1ccccc1 (stereo unspecified) | 9.51 µM | > 50.1 µM | 8.46 µM | > 100 µM | 10.5 µM | 0.486 µM | 5.08 µM | 0.0805 µM | 12.6 µM | 0.0667 µM | 0.0614 µM | 0.0487 µM | 0.0392 µM | 0.033 µM | 0.0347 µM | 0.0333 µM | 0.0253 µM | 0.0985 µM |  |  |
| NC(CCSCCF)C(=O)O (stereo unspecified) | > 100 µM | > 100 µM | > 100 µM | > 100 µM | > 100 µM | > 100 µM |  | > 100 µM | > 100 µM |  |  |  |  |  |  |  |  |  |  |  |
| O=C(/C=C/c1cc(O)ccc1O)c1ccc(Cl)cc1 | 61 µM | > 100 µM | > 100 µM |  | > 100 µM | > 100 µM | > 100 µM |  | > 100 µM | 17.8 µM | 31.8 µM | 44 µM |  | 28 µM | 32.5 µM | 35.3 µM |  | 96.7 µM | 30 µM | > 100 µM |
